Tests used:
crabgrass, large = experiment: Test C preemergence; format: in vivo, Digitaria sanguinalis; conditions: for Crabgrass, Large plant response rating / Plant response rating, Crabgrass, Large: preemergence; for Plant response rating, Crabgrass, Large: 125 g ai/ha, scale 0 to 100, 0 = no effect, 100 = complete control
Method in brief: (§1)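 Seeds were sown in a loam soil–sand blend and sprayed preemergence with compounds formulated in a non-phytotoxic solvent mixture containing surfactant. Postemergence plants, grown in peat/vermiculite medium to 2–18 cm (1- to 4-leaf stage), received the same formulation. After 13 to 15 days in a greenhouse, injury was rated visually against controls (0 = no effect, 100 = complete control).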

wheat = experiment: Test C postemergence; format: in vivo, Triticum aestivum; conditions: for Plant response rating, Wheat / Wheat plant response rating: postemergence; for Wheat plant response rating: scale 0 to 100
Method in brief: as §1

ryegrass, Italian = experiment: Test C preemergence; format: in vivo, Lolium multiflorum; conditions: for Ryegrass, Italian plant response rating / Plant response rating, Ryegrass, Italian: preemergence; for Plant response rating, Ryegrass, Italian: 125 g ai/ha, scale 0 to 100, 0 = no effect, 100 = complete control
Method in brief: as §1

morningglory [1] = experiment: Test A preemergence; format: in vivo, Ipomoea spp.; conditions: preemergence
Method in brief: (§2)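 Visual injury ratings, 0 = no effect to 100 = complete control, taken about 10 days after treatment against untreated controls. Test chemicals, in a non-phytotoxic surfactant-containing solvent, were sprayed onto soil preemergence or onto one- to two-leaf plants (2–10 cm) postemergence, in loam–sand soil under greenhouse conditions.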

pigweed = experiment: Test C postemergence; format: in vivo, Amaranthus retroflexus; conditions: for Pigweed plant response rating / Plant response rating, Pigweed: postemergence; for Pigweed plant response rating: 62 g ai/ha, scale 0 to 100
Method in brief: as §1

galium = experiment: Test C preemergence; format: in vivo, Galium aparine; conditions: for Galium plant response rating / Plant response rating, Galium: preemergence; for Plant response rating, Galium: 125 g ai/ha, scale 0 to 100, 0 = no effect, 100 = complete control
Method in brief: as §1

ragweed = experiment: Test C postemergence; format: in vivo, Ambrosia elation
Method in brief: as §1

morningglory [2] = experiment: Test C postemergence; format: in vivo, Ipomoea coccinea; conditions: for Plant response rating (scale of 0 to 100 where 0 is no effect and 100 is complete control), Morningglory: Postemergence, 31 g ai/ha, visually evaluated after 13 to 15 days; for Morningglory plant response rating / Plant response rating, Morningglory: postemergence; for Morningglory plant response rating: 62 g ai/ha, scale 0 to 100
Method in brief: as §1

sedge, umbrella = experiment: Test B flood; format: in vivo, Cyperus difformis; conditions: 250 g ai/ha, visual rating on 0 to 100 scale (0 no effect, 100 complete control), 13 to 15 days
Method in brief: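 Response scored visually, 0–100 relative to controls, 13–15 days after the compound was applied into paddy water; plants were at the 2-leaf stage in pots kept flooded to 3 cm.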

foxtail, giant = experiment: Test C postemergence; format: in vivo, Setaria faberii; conditions: for Plant response rating (scale of 0 to 100 where 0 is no effect and 100 is complete control), Foxtail, Giant: Postemergence, 31 g ai/ha, visually evaluated after 13 to 15 days; for Foxtail, Giant plant response rating / Plant response rating, Foxtail, Giant: postemergence; for Foxtail, Giant plant response rating: 62 g ai/ha, scale 0 to 100
Method in brief: as §1

chickweed = experiment: Test C postemergence; format: in vivo, Stellaria media; conditions: for Plant response rating (scale of 0 to 100 where 0 is no effect and 100 is complete control), Chickweed: Postemergence, 31 g ai/ha, visually evaluated after 13 to 15 days; for Chickweed plant response rating / Plant response rating, Chickweed: postemergence; for Chickweed plant response rating: 62 g ai/ha, scale 0 to 100
Method in brief: as §1

corn = experiment: Test A postemergence; format: in vivo, Zea mays
Method in brief: as §2

oat, wild = experiment: Test C postemergence; format: in vivo, Avena fatua; conditions: for Plant response rating (scale of 0 to 100 where 0 is no effect and 100 is complete control), Oat, Wild: Postemergence, 31 g ai/ha, visually evaluated after 13 to 15 days; for Oat, Wild plant response rating / Plant response rating, Oat, Wild: postemergence; for Oat, Wild plant response rating: 62 g ai/ha, scale 0 to 100
Method in brief: as §1

[3] = 31 g ai/ha, visual rating, scale 0 to 100 (0 no effect, 100 complete control), 13 to 15 days
[4] = 62 g ai/ha, scale 0 to 100 (0 no effect, 100 complete control), 13 to 15 days
[5] = 250 g ai/ha, scale 0 to 100, 0 is no effect, 100 is complete control
[6] = 250 g ai/ha, scale 0 to 100 (0 no effect, 100 complete control)
[7] = 500 g ai/ha, visual injury after approx. 10 days, 0 to 100 scale (0 no effect, 100 complete control)
[8] = 125 g ai/ha, scale 0 to 100, 0 no effect, 100 complete control
[9] = postemergence, 250 g ai/ha, scale 0 to 100 (0 no effect, 100 complete control)
[10] = postemergence, 125 g ai/ha, scale 0 to 100, 0 no effect, 100 complete control
[11] = Postemergence, 500 g ai/ha, 0 to 100 scale (0 no effect, 100 complete control)
[12] = postemergence, 125 g ai/ha, about 10 days, visual rating on 0 to 100 scale (0 no effect, 100 complete control)
[13] = Postemergence, 31 g ai/ha, visually evaluated after 13 to 15 days

CCCc1cc(C(=O)NC2CC2)nn1Cc1cc(C(F)(F)F)nn1C [Compound 202]
Crabgrass, Large plant response rating (crabgrass, large; [3]): 100 | Crabgrass, Large plant response rating (crabgrass, large; [4]): 100 | Plant response rating, Crabgrass, Large (crabgrass, large; 13 to 15 days): 100 | Crabgrass, Large plant response rating (crabgrass, large; [5]): 100 | Plant response rating, Wheat (wheat; [6]): 5 | Wheat plant response rating (wheat): 5 | Ryegrass, Italian plant response rating (ryegrass, Italian; [3]): 5 | Ryegrass, Italian plant response rating (ryegrass, Italian; [4]): 50 | Plant response rating, Ryegrass, Italian (ryegrass, Italian; 13 to 15 days): 90 | Ryegrass, Italian plant response rating (ryegrass, Italian; [5]): 90 | Morningglory plant response rating (0 to 100 scale) (morningglory [1]; 125 g ai/ha, visual injury approx. 10 days after treatment): 100 | Morningglory plant response rating (morningglory [1]; [7]): 100 | Pigweed plant response rating (pigweed): 80 | Plant response rating, Pigweed (pigweed; [6]): 95 | Plant response rating, Pigweed (pigweed; [8]): 90 | Galium plant response rating (galium; [3]): 98 | Galium plant response rating (galium; [4]): 100 | Plant response rating, Galium (galium; 13 to 15 days): 100 | Galium plant response rating (galium; [5]): 100 | Plant response rating, Ragweed (ragweed; [9]): 80 | Plant response rating, Ragweed (ragweed; [10]): 65 | Plant response rating (scale of 0 to 100 where 0 is no effect and 100 is complete control), Morningglory (morningglory [2]): 35 | Morningglory plant response rating (morningglory [2]): 40 | Plant response rating, Morningglory (morningglory [2]; [6]): 98 | Plant response rating, Morningglory (morningglory [2]; [8]): 90 | Plant response rating, Sedge, Umbrella (sedge, umbrella): 80 | Plant response rating (scale of 0 to 100 where 0 is no effect and 100 is complete control), Foxtail, Giant (foxtail, giant): 5 | Foxtail, Giant plant response rating (foxtail, giant): 10 | Plant response rating, Foxtail, Giant (foxtail, giant; [6]): 35 | Plant response rating, Foxtail, Giant (foxtail, giant; [8]): 10 | Plant response rating (scale of 0 to 100 where 0 is no effect and 100 is complete control), Chickweed (chickweed): 75 | Chickweed plant response rating (chickweed): 80 | Plant response rating, Chickweed (chickweed; [6]): 85 | Plant response rating, Chickweed (chickweed; [8]): 80 | Corn plant response rating (corn; [11]): 90 | Corn plant response rating (corn; [12]): 80 | Plant response rating (scale of 0 to 100 where 0 is no effect and 100 is complete control), Oat, Wild (oat, wild): 5 | Oat, Wild plant response rating (oat, wild): 5 | Plant response rating, Oat, Wild (oat, wild; [6]): 30 | Plant response rating, Oat, Wild (oat, wild; [8]): 10

CCONC(=O)c1cc(CC)n(Cc2ccnc(OC(F)F)c2)n1 [Compound 131]
Plant response rating (scale of 0 to 100), Crabgrass, Large (crabgrass, large; Preemergence, 250 g ai/ha): 100 | Crabgrass, Large plant response rating (crabgrass, large; [3]): 90 | Crabgrass, Large plant response rating (crabgrass, large; [4]): 100 | Plant response rating, Crabgrass, Large (crabgrass, large; 13 to 15 days): 100 | Plant response rating (scale of 0 to 100 where 0 is no effect and 100 is complete control), Wheat (wheat; [13]): 5 | Wheat plant response rating (wheat; 62 g ai/ha): 5 | Plant response rating, Wheat (wheat; [6]): 10 | Plant response rating, Wheat (wheat; [8]): 10 | Plant response rating (scale of 0 to 100), Ryegrass, Italian (ryegrass, Italian; Preemergence, 250 g ai/ha): 95 | Ryegrass, Italian plant response rating (ryegrass, Italian; [3]): 15 | Ryegrass, Italian plant response rating (ryegrass, Italian; [4]): 55 | Plant response rating, Ryegrass, Italian (ryegrass, Italian; 13 to 15 days): 85 | Morningglory plant response rating (morningglory [1]; 125 g ai/ha, visual injury, 0 to 100 scale, approx. 10 days): 100 | Morningglory plant response rating (morningglory [1]; [7]): 100 | Plant response rating (scale of 0 to 100 where 0 is no effect and 100 is complete control), Pigweed (pigweed; [13]): 35 | Pigweed plant response rating (pigweed): 65 | Plant response rating, Pigweed (pigweed; [6]): 98 | Plant response rating, Pigweed (pigweed; [8]): 90 | Plant response rating (scale of 0 to 100), Galium (galium; Preemergence, 250 g ai/ha): 98 | Galium plant response rating (galium; [3]): 55 | Galium plant response rating (galium; [4]): 75 | Plant response rating, Galium (galium; 13 to 15 days): 75 | Plant response rating (scale of 0 to 100 where 0 is no effect and 100 is complete control), Ragweed (ragweed; [13]): 5 | Ragweed plant response rating (ragweed; postemergence, 62 g ai/ha, scale 0 to 100): 30 | Plant response rating, Ragweed (ragweed; [9]): 85 | Plant response rating, Ragweed (ragweed; [10]): 60 | Plant response rating (scale of 0 to 100 where 0 is no effect and 100 is complete control), Morningglory (morningglory [2]): 35 | Morningglory plant response rating (morningglory [2]): 55 | Plant response rating, Morningglory (morningglory [2]; [6]): 70 | Plant response rating, Morningglory (morningglory [2]; [8]): 65 | Plant response rating, Sedge, Umbrella (sedge, umbrella): 90 | Plant response rating (scale of 0 to 100 where 0 is no effect and 100 is complete control), Foxtail, Giant (foxtail, giant): 5 | Foxtail, Giant plant response rating (foxtail, giant): 10 | Plant response rating, Foxtail, Giant (foxtail, giant; [6]): 50 | Plant response rating, Foxtail, Giant (foxtail, giant; [8]): 40 | Plant response rating (scale of 0 to 100 where 0 is no effect and 100 is complete control), Chickweed (chickweed): 70 | Chickweed plant response rating (chickweed): 70 | Plant response rating, Chickweed (chickweed; [6]): 80 | Plant response rating, Chickweed (chickweed; [8]): 70 | Corn plant response rating (corn; [11]): 100 | Corn plant response rating (corn; [12]): 80 | Plant response rating (scale of 0 to 100 where 0 is no effect and 100 is complete control), Oat, Wild (oat, wild): 5 | Oat, Wild plant response rating (oat, wild): 10 | Plant response rating, Oat, Wild (oat, wild; [6]): 10 | Plant response rating, Oat, Wild (oat, wild; [8]): 15
